Reference: publication PMC11941926, “Identification of Antimicrobial Peptides from Nibribacter radioresistens, a UV and Gamma Radiation Tolerant Bacterium” (Genes, 2025)
No end group written: not given here.

Columns and labels:
[1] = test system: Staphylococcus aureus (SA, ATCC 6538); test: Antibacterial activity of synthetic NB_AMPs, microtiter plate method (MIC); format: cell-based
Experimental: (§1) The cell-free supernatant of all E. coli DH5α strains containing cloned AMPs was collected after 24 h of culture and filtered through a 0.2 μm syringe (mixed cellulose esters (MCE), Merck, Darmstadt, Germany), and finally the cell-free supernatant was used for the evaluation of antibacterial activity. The cell-free supernatant from the E. coli DH5α, harboring only the plasmid vector without the NB_AMP genes, was confirmed as a negative control to have very little effect on antibacterial activities. The synthesized AMPs were suspended at a concentration of 10 mg/mL in distilled water and then used for antibacterial activity. The antibacterial activity against the Gram-negative bacterium, E. coli (EC; ATCC 10536), and the Gram-positive bacterium, Staphylococcus aureus (SA, ATCC 6538), was analyzed using the microtiter plate method and expressed as minimal inhibition concentration (MIC); the bacteria pre-cultured overnight (O/N) were cultured at 10^6 CFU/mL with the cell-free supernatant or the synthetic peptides, the reaction mixtures were added to the microtiter plate, and finally the reactivity was observed by O/N culture at 37 °C.

E. coli (EC; ATCC 10536) = test: as above; format: cell-based, Escherichia coli
Experimental: as §1

[2] = synthetic peptides, microtiter plate, 10^6 CFU/mL, O/N culture at 37 °C, peptide stock 10 mg/mL in distilled water

| Sequence | MIC50 against S. aureus [1, 2] [µg/mL] | MIC50 against E. coli (E. coli (EC; ATCC 10536); ATCC 10536, 24 h) [µg/mL] | MIC50 against S. aureus ([1]; ATCC 6538, 24 h) [µg/mL] | MIC50 against E. coli (E. coli (EC; ATCC 10536); [2]) [µg/mL] |
| --- | --- | --- | --- | --- |
| KKLAAKEKAAAAKEKEAAKKAAAKEKK [NB_AMP9] | 5050 |  |  |  |
| FFGRFKKEK [NB_AMP10] |  | 2600 | 2110 |  |
| NTLSSIASLLKK [NB_AMP5] |  | 10210 | 3240 |  |
| GLQKYLSWVKNKRL [NB_AMP2] | 230 |  |  | 170 |
| WQEIKNSLEDLSDSI [NB_AMP4] | 2950 |  |  | 4960 |
| NYKLLSNSLNILL [NB_AMP8] | 8360 |  |  |  |
| GQYNQGGYGSQGGDYGQGGYGQGSMGGGYG [NB_AMP6] | 5830 |  |  | 9430 |
| KGAKKAGKAVKKTVKK [NB_AMP3] | 2880 |  |  | 3430 |
